Values quoted from earlier work, collected in patent US10159658B2, “Compositions comprising statins, biguanides and further agents for reducing cardiometabolic risk” (ELCELYX THERAPEUTICS, INC., priority 2011, dated 2018).

Tested on: atherosclerotic plaque volume
Settings: diabetics; PERISCOPE, Nissen et al. JAMA 2008

In the case of `CCC1=C(C)CN(C(=O)NCCc2ccc(S(=O)(=O)NC(=O)N[C@H]3CC[C@H](C)CC3)cc2)C1=O` [Glimepiride], the “change of atherosclerotic plaque volume over time” value is listed as 0.73%.
